Measurements reported in patent US20230248833A1, “COMPOUND HAVING BTK KINASE DEGRADING ACTIVITY, AND PREPARATION METHOD AND PHARMACEUTICAL USE THEREFOR” (SICHUAN HAISCO PHARMACEUTICAL CO., LTD., priority 2020, published 2023).
Read-outs that look alike come from different tables or passages of the source.

Legend:
[1] = tested on: Mino cells; experiment: Inhibition of cell proliferation, Mino cells (Cell Viability Assay, 72 h); type: cell-based, human
Procedure: (§1) SU-DHL-4, Mino, and SU-DHL-6 cells, in the culture medium of RPMI1640+10% FBS, were cultured in an incubator at 37° C. under 5% CO2. Cells were plated in a 96-well plate. Specifically, SU-DHL-4 cells were at 20000/well, Mino and SU-DHL-6 cells were at 5000/well, with 90 μL/well. 10 μL of the compounds at different concentrations were added to each well. There were 3 replicate wells for each concentration, and the last column, added with DMSO, was used as a vehicle control group. The cultures were continued for 72 hours at 37° C. under 5% CO2. After 72 hours, 100 μL of detection reagent (Cell Viability Assay, Promega, G7573) was added to each well, and the cultures were uniformly mixed for 2 minutes, and incubated at room temperature for 10 minutes. The […] signal value was measured with a microplate reader (PHERAstar FSX). The IC50 value of the compound on cell proliferation inhibition was calculated using origin9.2 software, and the inhibition rate at the highest concentration of the compound (Max inhi.%) was calculated according to formula (1).
(§2) Max inhi.%=(1−T72administration/T72vehicle)×100 Formula (1).

[2] = tested on: SU-DHL-6 cells; experiment: Inhibition of cell proliferation, SU-DHL-6 cells (Cell Viability Assay, 72 h); type: cell-based, human
Procedure: as §1, §2

[3] = Pharmacokinetic experiment in rats; type: in vivo; conditions: male, SD, rat, po, plasma, i.g. (20 mg/kg); for AUC(0-t): single dose
Procedure: Experimental objective: In this experiment, a single dose of each test compound was administered to SD rats intravenously and intragastrically, the concentrations of the test compound in plasma of rats were measured, and the pharmacokinetic characteristics and bioavailability of the test compound in rats were evaluated.
Experimental animals: Male SD rats, about 200 g, 6-8 weeks old, 6 rats/compound. Rats were purchased from Hunan SJA Laboratory Animal Co., Ltd, with the laboratory animal production license number of SCXK (Xiang) 2019-004.
Experimental method: On the day of the experiment, 6 SD rats were randomly grouped according to their body weight. The animals were fasted with water available for 12 to 14 hours one day before the administration of a test compound, and were fed 4 hours after the administration.
Before and after the administration, […] of blood was taken from the orbit of the rats under isoflurane anesthesia, and placed in an EDTAK2 centrifuge tube. Centrifugation was carried out at 5000 rpm at 4° C. for 10 min, and the plasma was collected.
Time points for sample collection in G1&G2 groups comprise
Before analysis and detection, all samples were stored at −80° C. The samples were detected by HPLC-MS/MS.

| IC50 ([2]; Homo sapiens, SU-DHL-6, 72 h) | AUC(0-t) [3] | bioavailability ([3]; bioavailability) | IC50 [2] | Compound | IC50 ([1]; Homo sapiens, MINO, 72 h) | IC50 [1] |
| --- | --- | --- | --- | --- | --- | --- |
| 50 nM | 2080 ± 985 ng·h/mL |  |  | Nc1ncnc2c1c(-c1ccc(Oc3ccccc3)cc1)nn2C1CCN(C2CN(CC3(F)CCN(c4ccc5c(c4)C(=O)N(C4CCC(=O)NC4=O)C5=O)CC3)C2)CC1 (centres unmarked) [Compound 118, 5-(4-((3-(4-(4-amino-3-(4-phenoxyphenyl)-1H-pyrazolo[3,4-d]pyrimidin-1-yl)piperidin-1-yl)azetidin-1-yl)methyl)-4-fluoropiperidin-1-yl)-2-(2,6-dioxopiperidin-3-yl)isoindoline-1,3-dione] | 52 nM |  |
| 12 nM | 347 ± 55 ng·h/mL |  |  | Nc1ncnc2c1c(-c1ccc(Oc3ccccc3)cc1)nn2C1CCN(C2CN(CC3CCN(c4ccc5c(c4)C(=O)N(C4CCC(=O)NC4=O)C5=O)CC3)C2)CC1 (centres unmarked) [Trifluoroacetate of compound 98, 5-(4-((3-(4-(4-amino-3-(4-phenoxyphenyl)-1H-pyrazolo[3,4-d]pyrimidin-1-yl)piperidin-1-yl)azetidin-1-yl)methyl)piperidin-1-yl)-2-(2,6-dioxopiperidin-3-yl)isoindoline-1,3-dione] | 20 nM |  |
| 99 nM |  |  |  | Nc1ncnc2c1c(-c1ccc(Oc3ccccc3)cc1)nn2C1CCN(C2C[C@@H]3CN(CC4CN(c5ccc6c(c5)C(=O)N(C5CCC(=O)NC5=O)C6=O)C4)C[C@@H]3C2)CC1 (stereo partly drawn) [Trifluoroacetate of compound 100, 5-(3-(((3aR,6aS)-5-(4-(4-amino-3-(4-phenoxyphenyl)-1H-pyrazolo[3,4-d]pyrimidin-1-yl)piperidin-1-yl)hexahydrocyclopenta[c]pyrrol-2(1H)-yl)methyl)azetidin-1-yl)-2-(2,6-dioxopiperidin-3-yl)isoindoline-1,3-dione] | 123 nM |  |
| 77 nM |  |  |  | Nc1ncnc2c1c(-c1ccc(Oc3ccccc3)cc1)nn2C1CCN(C2CC3(CCN(CC4CN(c5ccc6c(c5)C(=O)N(C5CCC(=O)NC5=O)C6=O)C4)CC3)C2)CC1 (centres unmarked) [Trifluoroacetate of compound 101, 5-(3-((2-(4-(4-amino-3-(4-phenoxyphenyl)-1H-pyrazolo[3,4-d]pyrimidin-1-yl)piperidin-1-yl)-7-azaspiro[3.5]nonan-7-yl)methyl)azetidin-1-yl)-2-(2,6-dioxopiperidin-3-yl)isoindoline-1,3-dione] | 77 nM |  |
| 23 nM |  |  |  | Nc1ncnc2c1c(-c1ccc(Oc3ccccc3)cc1)nn2C1CCN(C2CN(C3CN(CC4CN(c5ccc6c(c5)C(=O)N(C5CCC(=O)NC5=O)C6=O)C4)C3)C2)CC1 (centres unmarked) [Trifluoroacetate of compound 102, 5-(3-((3-(4-(4-amino-3-(4-phenoxyphenyl)-1H-pyrazolo[3,4-d]pyrimidin-1-yl)piperidin-1-yl)-[1,3′-biazetidin]-1′-yl)methyl)azetidin-1-yl)-2-(2,6-dioxopiperidin-3-yl)isoindoline-1,3-dione] | 42 nM |  |
|  |  |  | 22 nM | Nc1ncnc2c1c(-c1ccc(Oc3ccccc3)cc1)nn2C1CCN(C2CN(CC3CN(c4ccc5c(c4)CN(C4CCC(=O)NC4=O)C5=O)C3)C2)CC1 (centres unmarked) [Trifluoroacetate of compound 107, 3-(5-(3-((3-(4-(4-amino-3-(4-phenoxyphenyl)-1H-pyrazolo[3,4-d]pyrimidin-1-yl)piperidin-1-yl)azetidin-1-yl)methyl)azetidin-1-yl)-1-oxoisoindolin-2-yl)piperidine-2,6-dione] |  | 34 nM |
|  |  |  | 145 nM | Nc1ncnc2c1c(-c1ccc(Oc3ccccc3)cc1)nn2C1CCN(C2CN(CC3CN(Cc4ccc5c(c4)C(=O)N(C4CCC(=O)NC4=O)C5=O)C3)C2)CC1 (centres unmarked) [Trifluoroacetate of compound 109, 5-((3-((3-(4-(4-amino-3-(4-phenoxyphenyl)-1H-pyrazolo[3,4-d]pyrimidin-1-yl)piperidin-1-yl)azetidin-1-yl)methyl)azetidin-1-yl)methyl)-2-(2,6-dioxopiperidin-3-yl)isoindoline-1,3-dione] |  | 356 nM |

Further lines, the compound ahead of its results:

| Compound | IC50 ([2]; Homo sapiens, SU-DHL-6, 72 h) | AUC(0-t) [3] | bioavailability ([3]; bioavailability) | IC50 [2] | IC50 ([1]; Homo sapiens, MINO, 72 h) | IC50 [1] |
| --- | --- | --- | --- | --- | --- | --- |
| Nc1ncnc2c1c(-c1ccc(Oc3ccccc3)cc1)nn2[C@H]1CCN(C2CN(CC3CN(c4ccc5c(c4)C(=O)N(C4CCC(=O)NC4=O)C5=O)C3)C2)C[C@H]1F (stereo partly drawn) [Compound 104, 5-(3-((3-((3R,4S)-4-(4-amino-3-(4-phenoxyphenyl)-1H-pyrazolo[3,4-d]pyrimidin-1-yl)-3-fluoropiperidin-1-yl)azetidin-1-yl)methyl)azetidin-1-yl)-2-(2,6-dioxopiperidin-3-yl)isoindoline-1,3-dione] | 23 nM | 1320 ± 653 ng·h/mL |  |  | 16 nM |  |
| Nc1ncnc2c1c(-c1ccc(Oc3ccccc3)cc1)nn2C1CCN(C2CN(CC3CN(c4cc5c(cc4F)C(=O)N(C4CCC(=O)NC4=O)C5=O)C3)C2)CC1 (centres unmarked) [Compound 106, 5-(3-((3-(4-(4-amino-3-(4-phenoxyphenyl)-1H-pyrazolo[3,4-d]pyrimidin-1-yl)piperidin-1-yl)azetidin-1-yl)methyl)azetidin-1-yl)-2-(2,6-dioxopiperidin-3-yl)-6-fluoroisoindoline-1,3-dione] | 95 nM | 3210 ± 728 ng·h/mL | 14.4 ± 3.3% |  | 119 nM |  |
| Nc1ncnc2c1c(-c1ccc(Oc3ccccc3)cc1)nn2[C@@H]1CCN(C2CN(CC3CN(c4ccc5c(c4)C(=O)N(C4CCC(=O)NC4=O)C5=O)C3)C2)C[C@@H]1F (stereo partly drawn) [Compound 110, 5-(3-((3-((3S,4R)-4-(4-amino-3-(4-phenoxyphenyl)-1H-pyrazolo[3,4-d]pyrimidin-1-yl)-3-fluoropiperidin-1-yl)azetidin-1-yl)methyl)azetidin-1-yl)-2-(2,6-dioxopiperidin-3-yl)isoindoline-1,3-dione] | 31 nM | 614 ± 125 ng·h/mL |  |  | 35 nM |  |
| Nc1ncnc2c1c(-c1ccc(Oc3ccccc3)cc1)nn2[C@@H]1CCN(C2CN(CC3CN(c4ccc5c(c4)C(=O)N(C4CCC(=O)NC4=O)C5=O)C3)C2)C[C@H]1F (stereo partly drawn) [Compound 111, 5-(3-((3-((3R,4R)-4-(4-amino-3-(4-phenoxyphenyl)-1H-pyrazolo[3,4-d]pyrimidin-1-yl)-3-fluoropiperidin-1-yl)azetidin-1-yl)methyl)azetidin-1-yl)-2-(2,6-dioxopiperidin-3-yl)isoindoline-1,3-dione] | 23 nM | 753 ± 261 ng·h/mL |  |  | 50 nM |  |
| Nc1ncnc2c1c(-c1ccc(Oc3ccccc3)cc1)nn2[C@H]1CCN(C2CN(CC3CN(c4ccc5c(c4)C(=O)N(C4CCC(=O)NC4=O)C5=O)C3)C2)C[C@@H]1F (stereo partly drawn) [Compound 112, 5-(3-((3-((3S,4S)-4-(4-amino-3-(4-phenoxyphenyl)-1H-pyrazolo[3,4-d]pyrimidin-1-yl)-3-fluoropiperidin-1-yl)azetidin-1-yl)methyl)azetidin-1-yl)-2-(2,6-dioxopiperidin-3-yl)isoindoline-1,3-dione] | 36 nM | 1780 ± 663 ng·h/mL |  |  | 39 nM |  |
| Nc1ncnc2c1c(-c1ccc(Oc3ccccc3)cc1)nn2[C@H]1CCN(C2CN(CC3CN(c4cc5c(cc4F)C(=O)N(C4CCC(=O)NC4=O)C5=O)C3)C2)C[C@H]1F (stereo partly drawn) [Compound 114, 5-(3-((3-((3R,4S)-4-(4-amino-3-(4-phenoxyphenyl)-1H-pyrazolo[3,4-d]pyrimidin-1-yl)-3-fluoropiperidin-1-yl)azetidin-1-yl)methyl)azetidin-1-yl)-2-(2,6-dioxopiperidin-3-yl)-6-fluoroisoindoline-1,3-dione] | 24 nM | 2670 ± 738 ng·h/mL |  |  | 66 nM |  |
| Nc1ncnc2c1c(-c1ccc(Oc3ccccc3)cc1)nn2C1CCN(C2CN(CC3(F)CN(c4ccc5c(c4)C(=O)N(C4CCC(=O)NC4=O)C5=O)C3)C2)CC1 (centres unmarked) [Compound 116, 5-(3-((3-(4-(4-amino-3-(4-phenoxyphenyl)-1H-pyrazolo[3,4-d]pyrimidin-1-yl)piperidin-1-yl)azetidin-1-yl)methyl)-3-fluoroazetidin-1-yl)-2-(2,6-dioxopiperidin-3-yl)isoindoline-1,3-dione] | 52 nM | 4440 ± 544 ng·h/mL |  |  | 29 nM |  |
| Nc1ncnc2c1c(-c1ccc(Oc3ccccc3)cc1)nn2C1CCN(C2CN(CC3(F)CCN(c4cc5c(cc4F)C(=O)N(C4CCC(=O)NC4=O)C5=O)CC3)C2)CC1 (centres unmarked) [Compound 117, 5-(4-((3-(4-(4-amino-3-(4-phenoxyphenyl)-1H-pyrazolo[3,4-d]pyrimidin-1-yl)piperidin-1-yl)azetidin-1-yl)methyl)-4-fluoropiperidin-1-yl)-2-(2,6-dioxopiperidin-3-yl)-6-fluoroisoindoline-1,3-dione] | 98 nM | 2280 ± 64 ng·h/mL |  |  | 119 nM |  |
